Test results published in the NIST ThermoML archive (doi:10.1016/j.jct.2006.07.021).
Numbers after ± are expanded uncertainties.

Test: xn = mol fraction of the nth substance listed
Conditions: 101 kPa, Liquid, Pycnometric method

CC(O)CO (stereo unspecified) [1,2-propanediol] + NC=O
x2 = 0
Conditions	mass density [kg/m3]
293.15 K	1036.38 ± 0.35
298.15 K	1032.76 ± 0.36
303.15 K	1029.14 ± 0.37
308.15 K	1025.52 ± 0.38
313.15 K	1021.9 ± 0.39
318.15 K	1018.28 ± 0.4

NC=O [formamide] + OCCO
mass density [kg/m3]
Conditions	293.15 K	298.15 K	303.15 K	308.15 K	313.15 K	318.15 K
x1 = 0.0612	1114.13 ± 0.33	1110.54 ± 0.34	1106.94 ± 0.35	1103.38 ± 0.36	1099.81 ± 0.37	1096.21 ± 0.38
x1 = 0.1204	1114.54 ± 0.33	1110.93 ± 0.34	1107.31 ± 0.35	1103.66 ± 0.36	1100.06 ± 0.37	1096.44 ± 0.38
x1 = 0.1859	1115.04 ± 0.33	1111.39 ± 0.34	1107.74 ± 0.35	1104.07 ± 0.36	1100.42 ± 0.37	1096.73 ± 0.38
x1 = 0.2524	1115.55 ± 0.33	1111.84 ± 0.34	1108.13 ± 0.35	1104.47 ± 0.36	1100.77 ± 0.37	1097.09 ± 0.38
x1 = 0.3302	1116.11 ± 0.32	1112.36 ± 0.33	1108.66 ± 0.34	1104.92 ± 0.35	1101.18 ± 0.36	1097.46 ± 0.37
x1 = 0.3926	1116.61 ± 0.32	1112.86 ± 0.33	1109.1 ± 0.34	1105.36 ± 0.35	1101.62 ± 0.36	1097.88 ± 0.37
x1 = 0.4517	1117.2 ± 0.32	1113.44 ± 0.33	1109.64 ± 0.34	1105.85 ± 0.35	1102.08 ± 0.36	1098.29 ± 0.37
x1 = 0.5102	1117.85 ± 0.32	1114.01 ± 0.33	1110.17 ± 0.34	1106.38 ± 0.35	1102.55 ± 0.36	1098.74 ± 0.37
x1 = 0.5643	1118.48 ± 0.32	1114.66 ± 0.33	1110.81 ± 0.34	1106.95 ± 0.35	1103.13 ± 0.36	1099.29 ± 0.37
x1 = 0.6101	1119.18 ± 0.32	1115.31 ± 0.33	1111.46 ± 0.34	1107.6 ± 0.35	1103.72 ± 0.36	1099.89 ± 0.37
x1 = 0.6596	1120.09 ± 0.32	1116.22 ± 0.33	1112.36 ± 0.34	1108.46 ± 0.35	1104.59 ± 0.36	1100.7 ± 0.37
x1 = 0.7454	1122.11 ± 0.32	1118.19 ± 0.33	1114.23 ± 0.34	1110.28 ± 0.35	1106.35 ± 0.36	1102.42 ± 0.37
x1 = 0.8195	1124.35 ± 0.32	1120.37 ± 0.33	1116.38 ± 0.34	1112.38 ± 0.35	1108.42 ± 0.36	1104.46 ± 0.37
x1 = 0.8883	1127.02 ± 0.32	1122.99 ± 0.33	1119 ± 0.34	1115.01 ± 0.35	1110.98 ± 0.36	1106.96 ± 0.37
x1 = 0.9491	1130.03 ± 0.32	1125.99 ± 0.33	1121.95 ± 0.34	1117.89 ± 0.35	1113.86 ± 0.36	1109.79 ± 0.37
x1 = 1	1133 ± 0.32	1129 ± 0.33	1125 ± 0.34	1121 ± 0.35	1117 ± 0.36	1113 ± 0.37

NC=O [formamide] + CC(O)CO
mass density [kg/m3]
Conditions	293.15 K	298.15 K	303.15 K	308.15 K	313.15 K	318.15 K
x1 = 0.0567	1038.29 ± 0.35	1034.56 ± 0.36	1030.82 ± 0.37	1027.12 ± 0.38	1023.41 ± 0.38	1019.67 ± 0.39
x1 = 0.1191	1040.52 ± 0.34	1036.78 ± 0.35	1033.03 ± 0.36	1029.25 ± 0.37	1025.52 ± 0.38	1021.77 ± 0.39
x1 = 0.1881	1043.47 ± 0.34	1039.69 ± 0.35	1035.91 ± 0.36	1032.11 ± 0.37	1028.33 ± 0.38	1024.51 ± 0.39
x1 = 0.2649	1047.35 ± 0.33	1043.5 ± 0.34	1039.65 ± 0.35	1035.85 ± 0.36	1032.01 ± 0.37	1028.19 ± 0.38
x1 = 0.3409	1051.67 ± 0.33	1047.79 ± 0.34	1043.96 ± 0.35	1040.09 ± 0.36	1036.22 ± 0.37	1032.37 ± 0.38
x1 = 0.3904	1054.79 ± 0.33	1050.91 ± 0.34	1047.02 ± 0.35	1043.15 ± 0.36	1039.28 ± 0.37	1035.44 ± 0.38
x1 = 0.4478	1058.92 ± 0.32	1055.02 ± 0.33	1051.08 ± 0.34	1047.15 ± 0.35	1043.24 ± 0.36	1039.31 ± 0.37
x1 = 0.4936	1062.42 ± 0.32	1058.49 ± 0.33	1054.56 ± 0.34	1050.68 ± 0.35	1046.76 ± 0.36	1042.86 ± 0.37
x1 = 0.5578	1068.01 ± 0.32	1064.07 ± 0.33	1060.1 ± 0.34	1056.12 ± 0.35	1052.18 ± 0.36	1048.22 ± 0.37
x1 = 0.6262	1074.52 ± 0.32	1070.55 ± 0.33	1066.6 ± 0.34	1062.64 ± 0.35	1058.66 ± 0.36	1054.73 ± 0.37
x1 = 0.6838	1080.96 ± 0.32	1076.95 ± 0.33	1072.95 ± 0.34	1068.91 ± 0.35	1064.9 ± 0.36	1060.87 ± 0.37
x1 = 0.7544	1089.83 ± 0.32	1085.77 ± 0.33	1081.67 ± 0.34	1077.58 ± 0.35	1073.51 ± 0.36	1069.44 ± 0.37
x1 = 0.8295	1100.75 ± 0.32	1096.63 ± 0.33	1092.5 ± 0.34	1088.36 ± 0.35	1084.26 ± 0.36	1080.16 ± 0.37
x1 = 0.8818	1109.7 ± 0.32	1105.53 ± 0.33	1101.4 ± 0.34	1097.27 ± 0.35	1093.1 ± 0.36	1088.94 ± 0.37
x1 = 0.9392	1120.57 ± 0.32	1116.44 ± 0.33	1112.31 ± 0.34	1108.16 ± 0.35	1104.04 ± 0.36	1099.88 ± 0.37
x1 = 1	1133 ± 0.32	1129 ± 0.33	1125 ± 0.34	1121 ± 0.35	1117 ± 0.36	1113 ± 0.37

OCCO [1,2-ethanediol] + NC=O
x2 = 0
Conditions	mass density [kg/m3]
293.15 K	1113.57 ± 0.33
303.15 K	1106.51 ± 0.35
313.15 K	1099.45 ± 0.37
